Source: ChEMBL document CHEMBL5154659, “A3 adenosine receptor agonists containing dopamine moieties for enhanced interspecies affinity” (Eur J Med Chem, 2022)
pEC50, pKi: −log10 of the molar value.

Key:
Adenosine receptor A3 [1] = target: T1, Adenosine receptor A3 (Mus musculus, UniProt Q61618); assay: Displacement of [125I] N6-4-amino-3-iodobenzyl adenosine 5-N-methyluronamide from mouse A3A receptor stably expressed in HEK293 cell membrane by radioligand inhibition assay; type: cell membranes
T1 sequence (Q61618 whole entry): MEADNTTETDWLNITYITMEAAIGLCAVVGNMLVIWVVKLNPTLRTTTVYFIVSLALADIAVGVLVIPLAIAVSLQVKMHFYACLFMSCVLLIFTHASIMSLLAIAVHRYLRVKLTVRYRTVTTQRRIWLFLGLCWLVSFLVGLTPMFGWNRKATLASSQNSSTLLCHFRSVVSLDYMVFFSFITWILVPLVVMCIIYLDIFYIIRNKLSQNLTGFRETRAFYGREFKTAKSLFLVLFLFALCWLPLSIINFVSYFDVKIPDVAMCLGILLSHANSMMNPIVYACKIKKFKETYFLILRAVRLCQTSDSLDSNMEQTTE

Adenosine receptor A2a [2] = target: T2, Adenosine receptor A2a (Homo sapiens, UniProt P29274); assay: Binding affinity to human adenosine A2A receptor expressed in human HEK293 cell membrane at 10 uM by radioligand inhibition assay; type: cell membranes
T2 sequence (P29274 whole entry): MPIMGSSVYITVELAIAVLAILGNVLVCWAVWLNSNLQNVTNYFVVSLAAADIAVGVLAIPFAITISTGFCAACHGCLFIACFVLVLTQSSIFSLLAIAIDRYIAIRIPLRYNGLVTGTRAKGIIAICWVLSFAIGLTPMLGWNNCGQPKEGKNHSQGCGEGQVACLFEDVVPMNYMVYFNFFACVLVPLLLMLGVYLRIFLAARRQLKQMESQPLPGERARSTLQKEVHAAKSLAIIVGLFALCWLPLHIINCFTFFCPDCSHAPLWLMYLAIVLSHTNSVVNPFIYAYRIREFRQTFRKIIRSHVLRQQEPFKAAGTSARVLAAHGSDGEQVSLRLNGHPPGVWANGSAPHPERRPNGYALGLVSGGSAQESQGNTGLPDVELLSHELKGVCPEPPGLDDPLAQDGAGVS

Adenosine receptor A3 [3] = target: T3, Adenosine receptor A3 (Homo sapiens, UniProt P0DMS8); assay: Displacement of [125I] N6-(4-amino-3-iodobenzyl)adenosine-5'-N-methyluronamide from human A3A receptor stably expressed in HEK293 cell membrane by radioligand inhibition assay; type: cell membranes
T3 sequence (P0DMS8 whole entry): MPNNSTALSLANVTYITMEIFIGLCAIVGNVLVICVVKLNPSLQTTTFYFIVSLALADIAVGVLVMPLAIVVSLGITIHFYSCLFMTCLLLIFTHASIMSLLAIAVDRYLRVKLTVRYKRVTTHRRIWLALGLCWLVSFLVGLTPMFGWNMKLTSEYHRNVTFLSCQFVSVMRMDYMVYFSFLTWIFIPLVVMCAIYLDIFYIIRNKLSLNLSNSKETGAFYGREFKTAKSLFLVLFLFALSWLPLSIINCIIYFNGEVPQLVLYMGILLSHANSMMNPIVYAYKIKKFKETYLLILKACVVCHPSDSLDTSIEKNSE

[4] = target: T4, Adenosine receptor A1 (Homo sapiens) (UniProt P30542); assay: Binding affinity to human adenosine A1A receptor expressed in human HEK293 cell membrane at 10 uM by radioligand inhibition assay; type: cell membranes
T4 sequence (whole entry): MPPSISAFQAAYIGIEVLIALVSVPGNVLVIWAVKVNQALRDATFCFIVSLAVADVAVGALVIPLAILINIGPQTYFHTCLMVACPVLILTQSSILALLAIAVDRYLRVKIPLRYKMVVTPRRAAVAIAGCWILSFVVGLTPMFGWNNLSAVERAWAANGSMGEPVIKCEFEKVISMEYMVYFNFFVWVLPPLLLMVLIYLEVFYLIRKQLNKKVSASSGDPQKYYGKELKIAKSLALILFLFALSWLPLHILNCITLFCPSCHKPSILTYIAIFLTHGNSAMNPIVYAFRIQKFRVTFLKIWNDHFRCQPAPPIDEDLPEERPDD

[5] = target: T5, Adenosine receptor A1 (Mus musculus) (UniProt Q60612); assay: Binding affinity to mouse adenosine A1A receptor expressed in human HEK293 cell membrane by radioligand inhibition assay; type: cell membranes; design: concentration or dose not given beside the values; conditions: concentration not given here
T5 sequence (whole entry): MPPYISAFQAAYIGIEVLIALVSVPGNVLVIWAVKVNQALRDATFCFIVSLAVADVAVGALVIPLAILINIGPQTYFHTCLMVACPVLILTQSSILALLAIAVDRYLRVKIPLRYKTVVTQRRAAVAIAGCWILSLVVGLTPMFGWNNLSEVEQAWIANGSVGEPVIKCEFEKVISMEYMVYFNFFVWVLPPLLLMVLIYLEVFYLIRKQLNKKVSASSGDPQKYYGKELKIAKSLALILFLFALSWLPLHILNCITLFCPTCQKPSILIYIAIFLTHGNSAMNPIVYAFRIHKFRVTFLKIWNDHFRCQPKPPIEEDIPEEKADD

Adenosine receptor A2a [6] = target: T2, Adenosine receptor A2a; assay: Displacement of [3H]-2-p-2-(carboxyethyl)phenyl-ethylamino-5'-N-ethylcarboxamidoadenosine from human A2A receptor stably expressed in HEK293 cell membrane by radioligand inhibition assay; type: cell membranes
Adenosine receptor A1 = target: T6, Adenosine receptor A1 (Mus musculus, UniProt Q60612); assay: Displacement of [3H] N6-R-phenylisopropyladenosine from mouse A1A receptor stably expressed in HEK293 cell membrane by radioligand inhibition assay; type: cell membranes
T6 sequence (Q60612 whole entry): T5 sequence (whole entry)

Adenosine receptor A3 [7] = target: T3, Adenosine receptor A3; assay: Agonist activity at human adenosine A3A receptor stably expressed in HEK293 cells assessed as beta arrestin 2 recruitment potency by luciferase based NanoBiT assay; type: functional, cell-based
Adenosine receptor A3 [8] = target: T3, Adenosine receptor A3; assay: Agonist activity at human adenosine A3A receptor stably expressed in HEK293 cells assessed as mini G-alpha recruitment potency by luciferase based NanoBiT assay; type: functional, cell-based

Row | Compound | pKi (Adenosine receptor A3 [1]) | inhibition (Adenosine receptor A2a [2]) [%] | pKi (Adenosine receptor A3 [3]) | inhibition [4] [%] | inhibition [5] [%] | pKi (Adenosine receptor A2a [6]) | pKi (Adenosine receptor A1) | pEC50 (Adenosine receptor A3 [7]) | pEC50 (Adenosine receptor A3 [8])
1 | CNC(=O)[C@@]12C[C@@H]1[C@@H](n1cnc3c(NCCc4ccc(OC)c(O)c4)nc(OCCCC4CCCCC4)nc31)[C@H](O)[C@@H]2O | 8.19 | – | – | – | – | – | – | – | –
2 | CCOC(=O)[C@@]12C[C@@H]1[C@@H](n1cnc3c(NCCc4ccc(OC)c(O)c4)nc(C#Cc4ccc(Cl)s4)nc31)[C@H](O)[C@@H]2O | 6.98 | 25 | 7.48 | 7 | 56 | – | – | – | –
3 | CNC(=O)[C@@]12C[C@@H]1[C@@H](n1cnc3c(NCCc4ccc(OC)c(O)c4)nc(OCC4CC4)nc31)[C@H](O)[C@@H]2O | 7.92 | – | – | – | – | 5.33 | 6.82 | – | –
4 | CNC(=O)[C@@]12C[C@@H]1[C@@H](n1cnc3c(NCCc4ccc(O)c(O)c4)nc(C#Cc4ccc(Cl)s4)nc31)[C@H](O)[C@@H]2O | 9.04 | 8 | 7.68 | 25 | – | – | – | – | –
5 | CNC(=O)[C@@]12C[C@@H]1[C@@H](n1cnc3c(NCCc4ccc(OC)c(OC)c4)nc(I)nc31)[C@H](O)[C@@H]2O | 8.27 | – | – | – | – | – | 6.07 | – | –
6 | CNC(=O)[C@@]12C[C@@H]1[C@@H](n1cnc3c(NCCc4ccccc4)nc(C#Cc4ccccc4Cl)nc31)[C@H](O)[C@@H]2O | – | 30 | 9.24 | 27 | – | – | – | – | –
7 | CNC(=O)[C@@]12C[C@@H]1[C@@H](n1cnc3c(NCCc4ccc(O)c(O)c4)nc(C#Cc4ccc(Br)s4)nc31)[C@H](O)[C@@H]2O | 8.60 | 6 | 7.20 | 31 | – | – | – | – | –
8 | CCOC(=O)[C@@]12C[C@@H]1[C@@H](n1cnc3c(NCCc4ccc(O)c(OC)c4)nc(C#Cc4ccc(Cl)s4)nc31)[C@H](O)[C@@H]2O | – | 33 | 7.43 | 0 | 57 | – | – | – | –
9 | CCOC(=O)[C@@]12C[C@@H]1[C@@H](n1cnc3c(NCCc4ccccc4)nc(C#Cc4ccc(Cl)s4)nc31)[C@H](O)[C@@H]2O | – | 24 | 7.22 | – | – | – | – | – | –
10 | CNC(=O)[C@@]12C[C@@H]1[C@@H](n1cnc3c(NCCc4ccc(OC)c(O)c4)nc(OCCC(C)C)nc31)[C@H](O)[C@@H]2O | 8.30 | – | – | – | – | 5.31 | 6.32 | – | –
11 | CNC(=O)[C@@]12C[C@@H]1[C@@H](n1cnc3c(NCCc4ccc(OC)c(O)c4)nc(OC)nc31)[C@H](O)[C@@H]2O | 8.27 | – | 8.41 | 59 | – | 4.99 | – | 7.30 | 7.41
12 | CNC(=O)[C@@]12C[C@@H]1[C@@H](n1cnc3c(NCCc4ccccc4)nc(C#Cc4ccc(Cl)s4)nc31)[C@H](O)[C@@H]2O | 8.72 | 49 | 8.47 | 4 | 42 | – | – | 7.19 | 7.19
13 | COc1cc(CCNc2nc(OCC(C)C)nc3c2ncn3[C@H]2[C@H](O)[C@H](O)[C@@H]3C[C@@H]32)ccc1O | – | – | 7.88 | 4 | – | 5.30 | – | – | –
14 | O[C@@H]1[C@H](O)[C@@H]2C[C@@H]2[C@H]1n1cnc2c(NCCc3ccccc3)nc(I)nc21 | – | – | 7.64 | – | – | 5.23 | – | – | –

Further lines, results first:

Row | pKi (Adenosine receptor A3 [1]) | inhibition (Adenosine receptor A2a [2]) [%] | pKi (Adenosine receptor A3 [3]) | inhibition [4] [%] | inhibition [5] [%] | pKi (Adenosine receptor A2a [6]) | pKi (Adenosine receptor A1) | pEC50 (Adenosine receptor A3 [7]) | pEC50 (Adenosine receptor A3 [8]) | Compound
15 | 8.81 | 32 | 8.49 | 9 | 40 | – | – | – | – | CNC(=O)[C@@]12C[C@@H]1[C@@H](n1cnc3c(NCCc4ccc(O)c(OC)c4)nc(C#Cc4ccco4)nc31)[C@H](O)[C@@H]2O
16 | 8.65 | 43 | 8.20 | 46 | – | – | 6.32 | – | – | CNC(=O)[C@@]12C[C@@H]1[C@@H](n1cnc3c(NCCc4ccc(O)c(OC)c4)nc(I)nc31)[C@H](O)[C@@H]2O
17 | 8.84 | 32 | 8.48 | 2 | 48 | – | – | 7.60 | 7.63 | CNC(=O)[C@@]12C[C@@H]1[C@@H](n1cnc3c(NCCc4ccc(O)c(OC)c4)nc(C#Cc4ccc(F)s4)nc31)[C@H](O)[C@@H]2O
18 | – | – | – | – | – | 5.09 | 5.63 | – | – | CNC(=O)[C@@]12C[C@@H]1[C@@H](n1cnc3c(NCc4ccc(O)c(OC)c4)nc(C#Cc4ccc(Cl)s4)nc31)[C@H](O)[C@@H]2O
19 | 8.50 | 31 | 8.28 | – | – | – | 8.43 | 7.40 | 7.36 | CNC(=O)[C@@]12C[C@@H]1[C@@H](n1cnc3c(NCCc4ccc(O)c(OC)c4)nc(C#Cc4ccc(Cl)s4)nc31)[C@H](O)[C@@H]2O
20 | 8.77 | 34 | 8.08 | 0 | 44 | – | – | – | – | CNC(=O)[C@@]12C[C@@H]1[C@@H](n1cnc3c(NCCc4ccc(OC)c(O)c4)nc(C#Cc4ccc(Cl)s4)nc31)[C@H](O)[C@@H]2O
21 | 8.88 | 43 | 8.47 | – | – | – | – | – | – | CNC(=O)[C@@]12C[C@@H]1[C@@H](n1cnc3c(NCCc4ccc(O)c(OC)c4)nc(C#Cc4ccc(Br)s4)nc31)[C@H](O)[C@@H]2O
22 | – | 36 | 8.10 | – | – | – | – | – | – | CNC(=O)[C@@]12C[C@@H]1[C@@H](n1cnc3c(NCCc4ccc(OC)c(OC)c4)nc(C#Cc4ccc(Br)s4)nc31)[C@H](O)[C@@H]2O
23 | 8.48 | 9 | 8.30 | 11 | – | – | 5.24 | – | – | CNC(=O)[C@@]12C[C@@H]1[C@@H](n1cnc3c(NCCc4ccc(O)c(OC)c4)nc(C#Cc4ccc(F)c(F)c4)nc31)[C@H](O)[C@@H]2O
24 | 8.81 | 28 | 9.25 | 2 | – | – | 5.29 | – | – | CNC(=O)[C@@]12C[C@@H]1[C@@H](n1cnc3c(NCCc4ccc(O)c(OC)c4)nc(C#Cc4ccccc4)nc31)[C@H](O)[C@@H]2O
25 | 8.68 | 35 | 8.48 | 30 | 61 | – | – | – | – | CNC(=O)[C@@]12C[C@@H]1[C@@H](n1cnc3c(NCCc4ccc(O)c(OC)c4)nc(C#Cc4ccsc4)nc31)[C@H](O)[C@@H]2O
26 | 8.90 | 37 | 8.48 | 12 | 47 | – | – | – | – | CNC(=O)[C@@]12C[C@@H]1[C@@H](n1cnc3c(NCCc4ccc(O)c(OC)c4)nc(C#Cc4cccs4)nc31)[C@H](O)[C@@H]2O
